In patent publication US20240398812A1 (Caraway Therapeutics, Inc., priority 2021, published 2024):
pEC50: −log10 of the molar value.

Tests used:
human TRPML1 = human TRPML1 (Homo sapiens, UniProt Q9GZU1); assay: Fluorescent TRPML1 assay (Fluo4-AM calcium fluorescence, HEK-293 Trex cells); assay type: cell-based
Description: (§1) HEK-293 Trex cells were stably transfected with a construct consisting of the human coding sequence for TRPML1 cloned into the tet-inducible plasmid pCDNA5 T/O. Mutations were introduced into the TRPML1 sequence to facilitate expression on the cell surface (Silvia Vergarajauregui, Rosa Puertollano Traffic. 2006 March; 7 (3): 337-353). Briefly, the cells are cultured in 150 mm round tissue culture dishes containing 20 mL of media. The day before the assay the cells are rinsed with DPBS —Ca—Mg and then treated briefly with Trypsin-EDTA. The Trypsin-EDTA is diluted with growth media, and cells are counted. 38×10^6 cells are re-plated into 150 mm round tissue culture dishes in media containing 0.5 ug/mL doxycycline to induce expression of hTRPML1.
(§2) The day of the experiment cells are lifted from the plates as above and collected by centrifugation. The cells are then suspended in dye loading buffer consisting of Ringer's solution supplemented with 0.1% Pluronic Acid and 1 micromolar Fluo4-AM dye. Cells are loaded for ˜60 minutes in the dark with occasional mixing. The cells are collected by centrifugation, the loading media aspirated, and the cells resuspended in 25 mL Ringer's solution and incubated ˜60 minutes in the dark. The cells are again collected by centrifugation, rinsed in Ringer's Solution and resuspended to 0.2×10^6 cells/mL in modified Ringer's solution containing 10 mM calcium.
(§3) Compounds are dissolved to a concentration of 10 millimolar with DMSO. Compound plates are created by dispensing compounds into 384 well black wall clear bottom plates (Greiner 781091). Positive and negative controls are included on each plate. Typically, different amounts of each compound are tested ranging from 100 nanoMoles (20 micromolar final concentration) decreasing in half-log steps to 31 picoMoles (6 nanomolar final concentration). Each concentration is typically tested in triplicate.
(§4) 50 microliters of dye-loaded cells are dispensed into each well of the compound assay plate created above. The fluorescence in each well is then determined with an excitation wavelength of 480 nm and an emission wavelength of 540 nm using either a Molecular Devices SpectraMax multimode plate reader or a Hamamatsu FDSS/uCell plate imager.
(§5) The resulting fluorescence for each well is exported as an ascii file and loaded into our LIMS for analysis. The percent activity of each compound at each concentration is determined by comparison to the positive and negative control wells included in each plate.
(§6) EC50 values were calculated using a non-linear regression of Prism. In the table, “A” indicates an EC50 of less than 100 nM, “B” indicates an EC50 range from 100 nM to 500 nM; “C” indicates an EC50 range from 500 nM to 2 μM; and “D” indicates an EC50 greater than 2 μM.

TRPML3 = target: T1, TRPML3 (Homo sapiens, UniProt Q8TDD5); assay: Fluorescent TRPML3 assay (as for TRPML1); assay type: cell-based; conditions: Table 3, compounds 101-177
T1 construct: expressed in transfected cells
T1 sequence (Q8TDD5 1-553): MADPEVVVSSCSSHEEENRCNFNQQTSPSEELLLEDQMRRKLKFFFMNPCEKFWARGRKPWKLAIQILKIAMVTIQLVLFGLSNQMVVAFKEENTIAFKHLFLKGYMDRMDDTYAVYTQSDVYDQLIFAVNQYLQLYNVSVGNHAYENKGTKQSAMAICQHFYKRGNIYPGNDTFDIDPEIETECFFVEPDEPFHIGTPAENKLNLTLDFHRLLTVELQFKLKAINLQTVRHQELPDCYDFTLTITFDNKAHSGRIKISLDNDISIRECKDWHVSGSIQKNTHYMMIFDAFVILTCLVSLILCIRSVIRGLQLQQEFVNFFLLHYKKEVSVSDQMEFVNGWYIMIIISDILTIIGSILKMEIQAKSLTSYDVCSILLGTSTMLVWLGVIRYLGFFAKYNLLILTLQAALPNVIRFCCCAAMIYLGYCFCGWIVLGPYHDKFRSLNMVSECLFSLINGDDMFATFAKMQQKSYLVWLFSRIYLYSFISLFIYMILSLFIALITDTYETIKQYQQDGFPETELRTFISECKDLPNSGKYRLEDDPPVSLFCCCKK
Description: as §1, §2, §3, §4, §5
Assays for TRPML2 and TRPML3 were performed as above for TRPML1, by substituting the appropriate TRPML2 or TRPML3 subtype for the TRPML1.
as §6

human TRPML1, sequence (Q9GZU1 whole entry L15A/L16A/L577A/L578A, form open): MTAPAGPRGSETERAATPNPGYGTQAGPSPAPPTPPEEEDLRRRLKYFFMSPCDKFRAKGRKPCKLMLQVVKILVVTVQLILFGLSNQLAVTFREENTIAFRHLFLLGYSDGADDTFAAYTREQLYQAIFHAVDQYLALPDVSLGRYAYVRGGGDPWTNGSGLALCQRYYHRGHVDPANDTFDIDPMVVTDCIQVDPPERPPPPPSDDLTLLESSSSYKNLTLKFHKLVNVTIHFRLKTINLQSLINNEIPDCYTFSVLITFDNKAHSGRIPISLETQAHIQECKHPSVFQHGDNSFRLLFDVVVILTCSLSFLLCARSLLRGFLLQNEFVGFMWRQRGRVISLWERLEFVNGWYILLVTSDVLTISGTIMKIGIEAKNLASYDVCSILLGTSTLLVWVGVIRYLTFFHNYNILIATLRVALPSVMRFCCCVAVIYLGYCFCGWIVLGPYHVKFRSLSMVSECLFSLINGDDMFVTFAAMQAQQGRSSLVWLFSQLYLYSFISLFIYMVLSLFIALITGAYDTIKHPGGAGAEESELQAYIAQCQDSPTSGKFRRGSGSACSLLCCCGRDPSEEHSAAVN

Row | pEC50 (human TRPML1; Table 3, compounds 201-283) | pEC50 (human TRPML1; Table 3, compounds 101-177) | pEC50 (TRPML3) | Compound
1 | > 7.00 |  |  | CC(C)C(=O)N1C[C@H](C)N(c2ncnc3c2c(-c2ccccc2F)cn3-c2cc(C#N)ccn2)C[C@H]1C (single isomer, unassigned) [Compound 233]
2 | > 7.00 |  |  | CC(C)C(=O)N1C[C@H](C)N(c2ncnc3c2c(-c2ccccc2F)cn3-c2cc(C#N)ccn2)C[C@H]1C (single isomer, unassigned) [Compound 234]
3 | 6.30 to 7.00 |  |  | CC(C)C(=O)N1C[C@H](C)N(c2ncnc3c2c(-c2ccccc2F)cn3-c2cc(C#N)ccn2)C[C@H]1C (single isomer, unassigned) [Compound 281]
4 |  | < 5.70 | 5.70 to 6.30 | CC(C)C(=O)N1CC2(CCN(c3ncnc4c3c(-c3ccccc3F)cn4-c3cc(C#N)ccn3)C2)C1 [Compound 101, 2-(5-(2-fluorophenyl)-4-(2-isobutyryl-2,6-diazaspiro[3.4]octan-6-yl)-7H-pyrrolo[2,3-d]pyrimidin-7-yl)isonicotinonitrile]
5 |  | > 7.00 | > 7.00 | C[C@H]1CN(C(=O)C2CC2)CCN1c1ncnc2c1c(-c1ccccc1F)cn2-c1cc(C#N)ccn1 [Compound 105, (S)-2-(4-(4-(cyclopropanecarbonyl)-2-methylpiperazin-1-yl)-5-(2-fluorophenyl)-7H-pyrrolo[2,3-d]pyrimidin-7-yl)isonicotinonitrile]
6 |  | 6.30 to 7.00 | > 7.00 | CC(C)C(=O)N1CCN(c2ncnc3c2c(-c2ccccc2F)cn3-c2cc(C#N)ccn2)CC1 [Compound 106, 2-(5-(2-fluorophenyl)-4-(4-isobutyrylpiperazin-1-yl)-7H-pyrrolo[2,3-d]pyrimidin-7-yl)isonicotinonitrile]
7 |  | 6.30 to 7.00 | 6.30 to 7.00 | N#Cc1ccnc(-n2cc(-c3ccccc3F)c3c(N4CCN(C(=O)C5CC5)CC4)ncnc32)c1 [Compound 110, 2-(4-(4-(cyclopropanecarbonyl)piperazin-1-yl)-5-(2-fluorophenyl)-7H-pyrrolo[2,3-d]pyrimidin-7-yl)isonicotinonitrile]
8 |  | > 7.00 |  | C[C@@H]1CN(c2ncnc3c2c(-c2ccccc2F)cn3-c2cc(C#N)ccn2)CCN1C(=O)C1CC1 [Compound 111, (R)-2-(4-(4-(cyclopropanecarbonyl)-3-methylpiperazin-1-yl)-5-(2-fluorophenyl)-7H-pyrrolo[2,3-d]pyrimidin-7-yl)isonicotinonitrile]
9 |  | > 7.00 | > 7.00 | C[C@H]1CN(C(=O)C2(C)CC2)CCN1c1ncnc2c1c(-c1ccccc1F)cn2-c1cc(C#N)ccn1 [Compound 112, (S)-2-(5-(2-fluorophenyl)-4-(2-methyl-4-(1-methylcyclopropane-1-carbonyl)piperazin-1-yl)-7H-pyrrolo[2,3-d]pyrimidin-7-yl)isonicotinonitrile]
10 |  | > 7.00 | 6.30 to 7.00 | CC(F)C(=O)N1CCN(c2ncnc3c2c(-c2ccccc2F)cn3-c2cc(C#N)ccn2)[C@@H](C)C1 (stereo partly drawn) [Compound 113, 2-(5-(2-fluorophenyl)-4-((2S)-4-(2-fluoropropanoyl)-2-methylpiperazin-1-yl)-7H-pyrrolo[2,3-d]pyrimidin-7-yl)isonicotinonitrile]
11 |  | > 7.00 | > 7.00 | C[C@H]1CN(C(=O)C(C)(C)F)CCN1c1ncnc2c1c(C1CC1)cn2-c1cc(C#N)ccn1 [Compound 114, (S)-2-(5-cyclopropyl-4-(4-(2-fluoro-2-methylpropanoyl)-2-methylpiperazin-1-yl)-7H-pyrrolo[2,3-d]pyrimidin-7-yl)isonicotinonitrile]
12 |  | 5.70 to 6.30 | 5.70 to 6.30 | CC(C)C(=O)N1CCN(c2ncnc3c2c(-c2ccccn2)cn3-c2cc(C#N)ccn2)[C@@H](C)C1 [Compound 116, (S)-2-(4-(4-isobutyryl-2-methylpiperazin-1-yl)-5-(pyridin-2-yl)-7H-pyrrolo[2,3-d]pyrimidin-7-yl)isonicotinonitrile]
13 |  | > 7.00 | > 7.00 | CC(C)C(=O)N1CCN(c2ncnc3c2c(-c2ccccc2)cn3-c2cc(C#N)ccn2)C[C@H]1C [Compound 119, (R)-2-(4-(4-isobutyryl-3-methylpiperazin-1-yl)-5-phenyl-7H-pyrrolo[2,3-d]pyrimidin-7-yl)isonicotinonitrile]
14 |  | 6.30 to 7.00 | 6.30 to 7.00 | C[C@H]1CN(C(=O)C2CC2)CCN1c1ncnc2c1c(-c1ccccc1)cn2-c1cc(C#N)ccn1 [Compound 123, (S)-2-(4-(4-(cyclopropanecarbonyl)-2-methylpiperazin-1-yl)-5-phenyl-7H-pyrrolo[2,3-d]pyrimidin-7-yl)isonicotinonitrile]
15 |  | 6.30 to 7.00 | 6.30 to 7.00 | C[C@@H]1CN(c2ncnc3c2c(-c2ccccc2)cn3-c2cc(C#N)ccn2)CCN1C(=O)C1CC1 [Compound 124, (R)-2-(4-(4-(cyclopropanecarbonyl)-3-methylpiperazin-1-yl)-5-phenyl-7H-pyrrolo[2,3-d]pyrimidin-7-yl)isonicotinonitrile]
16 |  | > 7.00 | > 7.00 | C[C@H]1CN(C(=O)C(C)(C)F)CCN1c1ncnc2c1c(-c1ccccc1F)cn2-c1cc(C#N)ccn1 [Compound 125, (S)-2-(4-(4-(2-fluoro-2-methylpropanoyl)-2-methylpiperazin-1-yl)-5-(2-fluorophenyl)-7H-pyrrolo[2,3-d]pyrimidin-7-yl)isonicotinonitrile]
17 |  | 5.70 to 6.30 | < 5.70 | C[C@H]1CN(C(=O)C2(C)CC2)CCN1c1ncnc2c1c(-c1ccccn1)cn2-c1cc(C#N)ccn1 [Compound 127, (S)-2-(4-(2-methyl-4-(1-methylcyclopropane-1-carbonyl)piperazin-1-yl)-5-(pyridin-2-yl)-7H-pyrrolo[2,3-d]pyrimidin-7-yl)isonicotinonitrile]
18 |  | > 7.00 | 6.30 to 7.00 | C[C@@H]1CN(c2ncnc3c2c(C2CC2)cn3-c2cc(C#N)ccn2)CCN1C(=O)C1(F)CC1 [Compound 129, (R)-2-(5-cyclopropyl-4-(4-(1-fluorocyclopropane-1-carbonyl)-3-methylpiperazin-1-yl)-7H-pyrrolo[2,3-d]pyrimidin-7-yl)isonicotinonitrile]
19 |  | 5.70 to 6.30 | 5.70 to 6.30 | CC(C)C(=O)N1CCN(c2ncnc3c2c(-c2ccccn2)cn3-c2cc(C#N)ccn2)C[C@H]1C [Compound 132, (R)-2-(4-(4-isobutyryl-3-methylpiperazin-1-yl)-5-(pyridin-2-yl)-7H-pyrrolo[2,3-d]pyrimidin-7-yl)isonicotinonitrile]
20 |  | > 7.00 | 6.30 to 7.00 | C[C@H]1CN(C(=O)CCC(F)(F)F)CCN1c1ncnc2c1c(-c1ccccc1F)cn2-c1cc(C#N)ccn1 [Compound 135, (S)-2-(5-(2-fluorophenyl)-4-(2-methyl-4-(4,4,4-trifluorobutanoyl)piperazin-1-yl)-7H-pyrrolo[2,3-d]pyrimidin-7-yl)isonicotinonitrile]
21 |  | 6.30 to 7.00 | 6.30 to 7.00 | C[C@H]1CN(C(=O)CC(C)(C)C)CCN1c1ncnc2c1c(C1CC1)cn2-c1cc(C#N)ccn1 [Compound 136, (S)-2-(5-cyclopropyl-4-(4-(3,3-dimethylbutanoyl)-2-methylpiperazin-1-yl)-7H-pyrrolo[2,3-d]pyrimidin-7-yl)isonicotinonitrile]
22 | 6.30 to 7.00 |  |  | CC(C)C(=O)N1C[C@H](C)N(c2ncnc3c2c(C2CCC2)cn3-c2cc(C#N)ccn2)C[C@H]1C [Compound 238, 2-(5-cyclobutyl-4-((2S,5R)-4-isobutyryl-2,5-dimethylpiperazin-1-yl)-7H-pyrrolo[2,3-d]pyrimidin-7-yl)isonicotinonitrile]
